{
  "source": "patent US5998654A",
  "about": "“Retinoic acid receptor antagonist compounds and methods” (Ligand Pharmaceuticals Incorporated, priority 1997, dated 1999)",
  "key": {"RARs": {"system": "RARs", "test": "co-transfection assay, activity on RARs (overall statement)", "format": "cell-based, human", "conditions": "comparison compound", "method": "Utilizing the \"cis-trans\" or \"co-transfection\" assay described by Evans et al., Science, 240:889-95 (May 13, 1988), the disclosure of which is herein incorporated by reference, the RAR antagonist compounds of the present invention were tested and found to have strong, specific activity as antagonists of RARs in the presence of RAR agonists. This assay is described in further detail in U.S. Pat. Nos. 4,981,784 and 5,071,773, the disclosures of which are incorporated herein by reference.\nIn the co-transfection assay, a cloned cDNA for an IR (e.g., human RARα:, RARβ, RXRγ) under the control of a constitutive promoter (e.g., the SV 40 promoter) is introduced by transfection (a procedure to induce cells to take up foreign genes) into a background cell substantially devoid of endogenous IRs. This introduced gene directs the recipient cells to make the IR protein of interest. A second gene is also introduced (co-transfected) into the same cells in conjunction with the IR gene. […]\nThe co-transfection assay can detect small molecule agonists or antagonists of target IRs. […] This activity can be conveniently measured, e.g., by increasing luciferase production, which reflects compound-dependent, IR-mediated increases in reporter transcription. […]"}, "RARγ": {"molecular_target": "T1, RARγ (Homo sapiens, UniProt P13631)", "T1 sequence (P13631 1-454)": "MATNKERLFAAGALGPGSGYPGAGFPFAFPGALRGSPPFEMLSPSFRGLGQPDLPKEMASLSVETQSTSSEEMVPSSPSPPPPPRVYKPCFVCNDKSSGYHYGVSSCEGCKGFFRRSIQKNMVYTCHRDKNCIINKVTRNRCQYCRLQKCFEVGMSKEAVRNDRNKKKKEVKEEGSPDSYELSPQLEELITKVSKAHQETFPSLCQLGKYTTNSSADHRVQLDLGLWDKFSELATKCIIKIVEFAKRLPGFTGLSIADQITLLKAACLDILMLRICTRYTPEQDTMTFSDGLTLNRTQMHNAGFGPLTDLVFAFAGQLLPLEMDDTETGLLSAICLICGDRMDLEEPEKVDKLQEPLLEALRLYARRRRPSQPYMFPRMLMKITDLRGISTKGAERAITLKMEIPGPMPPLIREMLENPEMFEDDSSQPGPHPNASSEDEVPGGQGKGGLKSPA", "test": "RAR binding, RARγ", "conditions": "Kd from IC50 by Cheng-Prussof equation", "method": "(§1) Non-specific binding was defined as that binding remaining in the presence of 500 nM of the appropriate unlabelled compound. At the end of the incubation period, bound from free ligand were separated. The amount of bound tritiated retinoids was determined by liquid scintillation counting of an aliquot (700 μL) of the supernatant fluid or the hydroxylapatite pellet.\n(§2) After correcting for non-specific binding, IC50 values were determined. […] The IC50 value was determined graphically from a log-logit plot of the data. The Kd values were determined by application of the Cheng-Prussof equation to the IC50 values, the labeled ligand concentration and the Kd of the labeled ligand."}, "RARβ": {"molecular_target": "T2, RARβ (Homo sapiens, UniProt P10826)", "T2 sequence (P10826 1-448 isoform P10826-2)": "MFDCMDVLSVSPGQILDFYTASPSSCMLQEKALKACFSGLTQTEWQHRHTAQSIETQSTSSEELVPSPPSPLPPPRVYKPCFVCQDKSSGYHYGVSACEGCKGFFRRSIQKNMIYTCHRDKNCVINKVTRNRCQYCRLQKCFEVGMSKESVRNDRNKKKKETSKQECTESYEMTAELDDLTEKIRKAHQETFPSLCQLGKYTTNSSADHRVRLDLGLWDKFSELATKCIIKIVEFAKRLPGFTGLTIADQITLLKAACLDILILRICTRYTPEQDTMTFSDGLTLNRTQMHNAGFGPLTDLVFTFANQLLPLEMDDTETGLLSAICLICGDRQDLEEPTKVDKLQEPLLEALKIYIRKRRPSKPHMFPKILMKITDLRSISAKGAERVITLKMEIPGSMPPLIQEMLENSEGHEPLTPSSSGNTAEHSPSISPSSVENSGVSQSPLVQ", "test": "RAR binding, RARβ", "conditions": "Kd from IC50 by Cheng-Prussof equation", "method": "as §1, §2"}, "RARα": {"molecular_target": "T3, RARα (Homo sapiens, UniProt P10276)", "T3 sequence (P10276 1-462)": "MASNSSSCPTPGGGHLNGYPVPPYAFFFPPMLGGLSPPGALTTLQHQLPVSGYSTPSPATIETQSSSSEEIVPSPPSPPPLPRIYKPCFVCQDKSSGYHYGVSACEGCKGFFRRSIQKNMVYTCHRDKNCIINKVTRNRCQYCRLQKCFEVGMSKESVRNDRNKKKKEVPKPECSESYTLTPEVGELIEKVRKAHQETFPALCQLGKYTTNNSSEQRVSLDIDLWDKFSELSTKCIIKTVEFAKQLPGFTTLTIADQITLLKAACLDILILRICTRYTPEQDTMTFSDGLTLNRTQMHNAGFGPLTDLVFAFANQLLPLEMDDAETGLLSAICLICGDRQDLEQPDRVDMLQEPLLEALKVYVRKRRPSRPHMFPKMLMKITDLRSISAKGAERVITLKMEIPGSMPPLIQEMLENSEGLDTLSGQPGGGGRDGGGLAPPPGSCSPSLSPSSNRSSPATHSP", "test": "RAR binding, RARα", "conditions": "Kd from IC50 by Cheng-Prussof equation", "method": "as §1, §2"}},
  "data": [
    {"smiles": "COc1c(C(C)(C)C)cc(/C(C)=C/C=C/C(C)=C/C(=O)O)cc1C(C)(C)C", "note": "[A, reference compound]", "values": [
      {"measurement": "type of activity on RAR (in words)", "setting": "RARs", "value": "displays only activity as an RAR? agonist"},
      {"measurement": "Kd", "setting": "RARγ", "value": 0.5, "unit": "nM"},
      {"measurement": "Kd", "setting": "RARβ", "value": 0.4, "unit": "nM"},
      {"measurement": "Kd", "setting": "RARα", "value": 1, "unit": "nM"}
    ]}
  ]
}
